How the values were obtained:
[1] = biological target: T1, native cerebellar IP3R (Mus musculus, UniProt P11881); conditions: read-out: affinity for IP3; cited from earlier work
T1 construct: host or cells: cerebellum

[2] = system: IP3 receptor; experiment: IP3 receptor function in wild type and phosphorylation deficient mutant DT40 cells before and after activation; type: cell-based; conditions: phosphorylation deficient mutant, FIG. 6
Description: The compounds were tested on wild type DT40 cells. The phosphorylation deficient cells were generated by transfecting phosphorylation deficient IP3R mutant cDNAs into triple IP3R deficient DT40 cells. These cells express mutant IP3R with Ser421 and Thr799 replaced by alanine residues. The remaining portion of the receptor is the same as native IP3R.

[3] = system: syncytial cell death induced by HIV infection; conditions: inhibition of cdc2 activity; cited from earlier work
[4] = system: IP3R1 phosphorylation at Ser421 and Thr799 in DT40 cells; experiment: IP3R1 phosphorylation in DT40 cells, immunoblot with αSer421 and αThr799; type: cell-based; conditions: 1 μM nocodazole, 16 h, serum-starved DT40 cells, compared to control cells
Description: FIG. 4 IP3R1 phosphorylation at Ser421 and Thr799 occurs in vivo. DT40 cells were serum-starved for 24 h and cultured with and without 1 μM nocodazole (control) for 16 h in RPMI-1640 medium containing 10% FBS. After 16 h in culture, cells were washed two times with PBS, and cell lysates were resolved on 6% SDS-PAGE gels and immunoblotted with αSer^421 (A), αThr^799 (B) or αIP3R1 (C).
Cells were equalized for number and lysed in ice-cold lysis buffer containing 0.5% Nonidet P-40, 25 mM HEPES, pH 7.4, 150 mM NaCl, 1 mM EDTA, 1 mM sodium orthovanadate and protease inhibitors. Cell lysates were centrifuged at 13,000× g in a microcentrifuge, and the supernatants were subjected to immunoblotting and immunoprecipitation (Frangioni and Neal 1993; Matter, et al., 1993). The membranes were blocked in TBST (20 mM Tris/HCl, pH 7.4, 0.9% NaCl, and 0.05% Tween 20) containing 5% nonfat dried milk for 1 hr followed by incubation with primary antibodies. After extensive washings, the membranes were incubated with secondary antibody conjugated to horseradish peroxidase (goat anti-rabbit IgG; Pharmingen, Calif.) in TBST containing 5% nonfat dried milk. The immunoblots were analyzed using an ECL detection system (Amersham, Piscataway, N.J.). […] Phosphoproteins were separated by SDS-PAGE and detected by autoradiography as described (Frangioni and Neal 1993; Means 1994). […]

T1 sequence (P11881 whole entry): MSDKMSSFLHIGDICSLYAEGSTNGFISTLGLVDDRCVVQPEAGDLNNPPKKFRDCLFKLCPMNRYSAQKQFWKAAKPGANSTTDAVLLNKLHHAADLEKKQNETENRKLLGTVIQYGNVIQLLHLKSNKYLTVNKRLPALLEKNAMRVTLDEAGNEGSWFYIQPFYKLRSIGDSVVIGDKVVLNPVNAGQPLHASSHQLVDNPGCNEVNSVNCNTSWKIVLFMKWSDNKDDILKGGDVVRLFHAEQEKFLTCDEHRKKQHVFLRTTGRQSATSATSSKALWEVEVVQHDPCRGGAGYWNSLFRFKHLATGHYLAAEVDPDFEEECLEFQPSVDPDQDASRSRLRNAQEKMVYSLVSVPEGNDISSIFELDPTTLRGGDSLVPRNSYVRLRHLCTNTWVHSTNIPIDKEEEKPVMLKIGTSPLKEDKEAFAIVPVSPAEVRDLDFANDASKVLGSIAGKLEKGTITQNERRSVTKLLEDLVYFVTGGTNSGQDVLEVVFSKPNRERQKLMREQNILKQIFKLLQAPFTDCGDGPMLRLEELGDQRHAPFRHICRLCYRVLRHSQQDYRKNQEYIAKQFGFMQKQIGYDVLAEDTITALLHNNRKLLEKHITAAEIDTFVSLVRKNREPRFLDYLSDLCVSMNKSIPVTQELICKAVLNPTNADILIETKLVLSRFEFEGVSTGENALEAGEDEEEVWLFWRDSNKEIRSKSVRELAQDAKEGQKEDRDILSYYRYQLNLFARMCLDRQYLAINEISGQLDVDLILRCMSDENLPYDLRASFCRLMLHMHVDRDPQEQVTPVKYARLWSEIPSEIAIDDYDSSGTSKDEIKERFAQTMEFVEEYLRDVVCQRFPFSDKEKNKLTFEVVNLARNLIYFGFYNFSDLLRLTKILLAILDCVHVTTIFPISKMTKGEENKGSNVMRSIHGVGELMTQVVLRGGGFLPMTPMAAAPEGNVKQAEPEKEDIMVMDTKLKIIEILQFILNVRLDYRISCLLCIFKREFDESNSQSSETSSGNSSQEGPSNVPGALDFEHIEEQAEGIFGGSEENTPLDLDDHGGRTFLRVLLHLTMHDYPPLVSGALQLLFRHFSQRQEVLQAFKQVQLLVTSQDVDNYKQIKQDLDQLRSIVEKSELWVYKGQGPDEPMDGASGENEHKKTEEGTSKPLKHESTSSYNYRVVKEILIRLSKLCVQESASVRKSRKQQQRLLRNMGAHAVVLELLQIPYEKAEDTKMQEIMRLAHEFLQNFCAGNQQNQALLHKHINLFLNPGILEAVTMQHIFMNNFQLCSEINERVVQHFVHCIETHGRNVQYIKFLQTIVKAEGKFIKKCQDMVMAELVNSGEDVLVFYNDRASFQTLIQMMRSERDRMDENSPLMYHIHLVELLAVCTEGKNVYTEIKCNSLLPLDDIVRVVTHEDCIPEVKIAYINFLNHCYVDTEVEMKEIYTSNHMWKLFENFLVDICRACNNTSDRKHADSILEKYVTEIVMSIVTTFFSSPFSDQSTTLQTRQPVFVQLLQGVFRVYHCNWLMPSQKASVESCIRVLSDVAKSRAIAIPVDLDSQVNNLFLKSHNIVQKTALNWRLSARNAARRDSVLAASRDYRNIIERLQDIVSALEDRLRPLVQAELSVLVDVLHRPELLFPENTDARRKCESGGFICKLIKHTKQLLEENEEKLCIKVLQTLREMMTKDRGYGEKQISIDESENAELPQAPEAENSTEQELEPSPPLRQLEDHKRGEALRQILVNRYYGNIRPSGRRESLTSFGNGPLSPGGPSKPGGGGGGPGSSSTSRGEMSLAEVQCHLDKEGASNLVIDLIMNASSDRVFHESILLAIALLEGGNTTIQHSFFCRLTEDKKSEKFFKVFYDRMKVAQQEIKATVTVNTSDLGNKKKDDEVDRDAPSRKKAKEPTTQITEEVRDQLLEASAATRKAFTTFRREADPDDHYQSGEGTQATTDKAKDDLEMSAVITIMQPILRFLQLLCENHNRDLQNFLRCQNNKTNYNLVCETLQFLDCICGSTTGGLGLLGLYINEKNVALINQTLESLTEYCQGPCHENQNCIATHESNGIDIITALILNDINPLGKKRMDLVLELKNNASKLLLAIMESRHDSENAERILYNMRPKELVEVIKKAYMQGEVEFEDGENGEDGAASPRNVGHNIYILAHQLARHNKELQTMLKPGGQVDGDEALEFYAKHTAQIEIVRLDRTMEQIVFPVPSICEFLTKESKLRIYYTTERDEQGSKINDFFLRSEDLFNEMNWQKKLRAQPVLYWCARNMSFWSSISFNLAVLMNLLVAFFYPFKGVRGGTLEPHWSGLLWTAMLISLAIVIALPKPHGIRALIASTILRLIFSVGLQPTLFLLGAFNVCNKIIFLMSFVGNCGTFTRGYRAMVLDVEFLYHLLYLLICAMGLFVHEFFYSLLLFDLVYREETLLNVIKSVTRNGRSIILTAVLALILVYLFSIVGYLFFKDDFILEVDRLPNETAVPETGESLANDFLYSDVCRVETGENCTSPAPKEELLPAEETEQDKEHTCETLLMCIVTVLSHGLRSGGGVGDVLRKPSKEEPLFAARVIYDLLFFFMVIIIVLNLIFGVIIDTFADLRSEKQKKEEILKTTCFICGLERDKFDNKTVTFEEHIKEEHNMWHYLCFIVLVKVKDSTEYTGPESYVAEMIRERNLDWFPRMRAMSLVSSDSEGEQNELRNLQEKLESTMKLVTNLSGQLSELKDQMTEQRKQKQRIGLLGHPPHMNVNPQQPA

## O=P(O)(O)O[C@@H]1[C@H](O)[C@H](O)[C@@H](OP(=O)(O)O)[C@H](OP(=O)(O)O)[C@H]1O [IP3, inositol 1,4,5-trisphosphate]
[1]
  Kd: 83 nM

## Xestospongin
[2]
  IP3 receptor function: affect IP3 receptor function

## NCCOB(c1ccccc1)c1ccccc1 [2-APB]
[2]
  IP3 receptor function: affect IP3 receptor function

## CC[C@H](CO)Nc1nc(NCc2ccccc2)c2ncn(C(C)C)c2n1 [roscovitine]
[3]
  syncytial cell death induced by HIV infection: prevented syncytial cell death

## COC(=O)Nc1nc2ccc(C(=O)c3cccs3)cc2[nH]1 [Nocodazole, nocodazole]
[4]
  IP3R1 phosphorylation at both Ser421 and Thr799: greatly enhanced IP3R1 phosphorylation

From patent US20050119179A1, “Inositol 1, 4, 5-triphosphate receptor (type 1), phosphorylation and modulation by CDC2” (priority 2003, published 2005)
